Measurements: article PMC12718081 (ACS Infectious Diseases, 2025)
Values joined by “and” are separate entries in the source; they are usually repeats but may differ in a detail not shown here. Equal values may be shown once. Read-outs that look alike come from different tables or passages of the source.

Columns and labels:
juvenile schistosomes = test: Microscopy analysis of juvenile morphology and motility (viability score 0-3); details: 72 h
[1] = system: adult schistosomes (male and female worms); test: Adult worm ex vivo high-content image-based motility assay; format: cell-based, Schistosoma mansoni
Sm.TRPMPZQ (wild-type) = Sm.TRPMPZQ (wild-type) (Schistosoma mansoni, UniProt A0A5K4F0X5); test: Ca2+ reporter (FLIPR) activation assay, wild-type Sm.TRPMPZQ in HEK293 cells; format: cell-based
Sequence of Sm.TRPMPZQ (wild-type) (A0A5K4F0X5 entry or part of it): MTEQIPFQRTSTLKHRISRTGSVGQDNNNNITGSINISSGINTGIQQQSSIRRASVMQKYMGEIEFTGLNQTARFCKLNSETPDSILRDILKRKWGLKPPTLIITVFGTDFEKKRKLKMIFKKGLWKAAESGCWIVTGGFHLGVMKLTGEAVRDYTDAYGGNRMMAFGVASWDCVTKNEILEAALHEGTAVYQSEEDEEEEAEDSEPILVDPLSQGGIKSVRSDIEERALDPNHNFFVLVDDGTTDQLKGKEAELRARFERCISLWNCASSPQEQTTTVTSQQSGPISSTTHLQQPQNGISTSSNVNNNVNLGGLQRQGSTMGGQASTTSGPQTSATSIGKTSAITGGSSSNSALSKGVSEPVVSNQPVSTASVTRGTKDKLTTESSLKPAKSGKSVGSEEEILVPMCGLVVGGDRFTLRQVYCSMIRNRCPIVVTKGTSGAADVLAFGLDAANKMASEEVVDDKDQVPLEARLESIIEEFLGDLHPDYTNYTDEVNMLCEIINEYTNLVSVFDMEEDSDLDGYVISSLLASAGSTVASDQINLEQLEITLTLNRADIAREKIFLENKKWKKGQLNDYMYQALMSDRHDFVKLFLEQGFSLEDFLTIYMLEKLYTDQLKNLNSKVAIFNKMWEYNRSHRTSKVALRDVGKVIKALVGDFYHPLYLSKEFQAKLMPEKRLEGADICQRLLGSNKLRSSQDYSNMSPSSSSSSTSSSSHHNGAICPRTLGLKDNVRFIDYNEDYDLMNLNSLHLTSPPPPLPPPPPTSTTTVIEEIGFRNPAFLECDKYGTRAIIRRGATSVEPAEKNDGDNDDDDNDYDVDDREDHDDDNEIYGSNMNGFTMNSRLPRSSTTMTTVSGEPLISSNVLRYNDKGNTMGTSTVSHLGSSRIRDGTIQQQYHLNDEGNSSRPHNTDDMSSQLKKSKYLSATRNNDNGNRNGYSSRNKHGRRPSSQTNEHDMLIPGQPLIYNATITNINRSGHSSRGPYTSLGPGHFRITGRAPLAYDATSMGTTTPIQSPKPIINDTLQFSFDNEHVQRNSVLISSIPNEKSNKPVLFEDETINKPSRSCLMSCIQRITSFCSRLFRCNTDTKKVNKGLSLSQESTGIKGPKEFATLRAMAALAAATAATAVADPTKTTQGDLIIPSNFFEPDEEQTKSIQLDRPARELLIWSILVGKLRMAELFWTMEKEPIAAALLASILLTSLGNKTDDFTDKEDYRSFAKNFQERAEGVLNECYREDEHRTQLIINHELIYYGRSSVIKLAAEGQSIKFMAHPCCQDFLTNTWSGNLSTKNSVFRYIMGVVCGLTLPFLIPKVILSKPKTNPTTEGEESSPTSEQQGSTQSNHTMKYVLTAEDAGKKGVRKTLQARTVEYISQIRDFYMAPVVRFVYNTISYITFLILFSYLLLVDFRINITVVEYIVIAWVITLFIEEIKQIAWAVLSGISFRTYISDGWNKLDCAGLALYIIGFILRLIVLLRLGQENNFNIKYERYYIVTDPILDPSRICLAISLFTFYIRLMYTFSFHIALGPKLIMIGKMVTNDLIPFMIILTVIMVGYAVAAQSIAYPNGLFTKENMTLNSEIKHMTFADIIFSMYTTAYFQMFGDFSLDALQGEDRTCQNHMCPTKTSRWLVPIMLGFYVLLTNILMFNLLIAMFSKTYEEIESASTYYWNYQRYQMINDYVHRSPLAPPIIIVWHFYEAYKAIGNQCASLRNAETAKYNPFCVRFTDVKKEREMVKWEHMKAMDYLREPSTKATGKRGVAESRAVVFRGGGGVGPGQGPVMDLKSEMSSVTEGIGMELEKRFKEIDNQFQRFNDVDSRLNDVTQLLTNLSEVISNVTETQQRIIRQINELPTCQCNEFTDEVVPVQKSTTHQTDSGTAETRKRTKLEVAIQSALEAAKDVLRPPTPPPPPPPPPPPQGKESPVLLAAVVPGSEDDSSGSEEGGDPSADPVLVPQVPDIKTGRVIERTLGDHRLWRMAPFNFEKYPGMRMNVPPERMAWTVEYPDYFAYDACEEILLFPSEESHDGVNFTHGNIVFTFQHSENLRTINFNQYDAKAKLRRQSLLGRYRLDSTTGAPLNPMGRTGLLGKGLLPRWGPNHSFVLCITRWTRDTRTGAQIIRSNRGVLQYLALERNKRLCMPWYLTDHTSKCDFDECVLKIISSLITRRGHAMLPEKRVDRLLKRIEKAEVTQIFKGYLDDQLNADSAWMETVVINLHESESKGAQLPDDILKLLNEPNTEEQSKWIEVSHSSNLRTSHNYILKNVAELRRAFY
Procedure, shortened: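 Wild-type Sm.TRPMPZQ in HEK293 cells, with untransfected HEK293 as control. Cells dye-loaded in HBSS/20 mM HEPES buffer with 2.5 mM probenecid, 0.3% BSA and 0.03% ascorbic acid (40 min 37 °C, then 20 min RT). FLIPR Ca²⁺ flux at room temperature: 20 s baseline, then drug addition, then 250 s recording.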

Eg.TRPMPZQ = Eg.TRPMPZQ (Echinococcus granulosus, UniProt W6UVV9); test: cell-based; details: HEK293, Ca2+ reporter, mean ± standard deviation; read-out: Bmax, Eg.TRPMPZQ activation
Sequence of Eg.TRPMPZQ (W6UVV9 entry or part of it): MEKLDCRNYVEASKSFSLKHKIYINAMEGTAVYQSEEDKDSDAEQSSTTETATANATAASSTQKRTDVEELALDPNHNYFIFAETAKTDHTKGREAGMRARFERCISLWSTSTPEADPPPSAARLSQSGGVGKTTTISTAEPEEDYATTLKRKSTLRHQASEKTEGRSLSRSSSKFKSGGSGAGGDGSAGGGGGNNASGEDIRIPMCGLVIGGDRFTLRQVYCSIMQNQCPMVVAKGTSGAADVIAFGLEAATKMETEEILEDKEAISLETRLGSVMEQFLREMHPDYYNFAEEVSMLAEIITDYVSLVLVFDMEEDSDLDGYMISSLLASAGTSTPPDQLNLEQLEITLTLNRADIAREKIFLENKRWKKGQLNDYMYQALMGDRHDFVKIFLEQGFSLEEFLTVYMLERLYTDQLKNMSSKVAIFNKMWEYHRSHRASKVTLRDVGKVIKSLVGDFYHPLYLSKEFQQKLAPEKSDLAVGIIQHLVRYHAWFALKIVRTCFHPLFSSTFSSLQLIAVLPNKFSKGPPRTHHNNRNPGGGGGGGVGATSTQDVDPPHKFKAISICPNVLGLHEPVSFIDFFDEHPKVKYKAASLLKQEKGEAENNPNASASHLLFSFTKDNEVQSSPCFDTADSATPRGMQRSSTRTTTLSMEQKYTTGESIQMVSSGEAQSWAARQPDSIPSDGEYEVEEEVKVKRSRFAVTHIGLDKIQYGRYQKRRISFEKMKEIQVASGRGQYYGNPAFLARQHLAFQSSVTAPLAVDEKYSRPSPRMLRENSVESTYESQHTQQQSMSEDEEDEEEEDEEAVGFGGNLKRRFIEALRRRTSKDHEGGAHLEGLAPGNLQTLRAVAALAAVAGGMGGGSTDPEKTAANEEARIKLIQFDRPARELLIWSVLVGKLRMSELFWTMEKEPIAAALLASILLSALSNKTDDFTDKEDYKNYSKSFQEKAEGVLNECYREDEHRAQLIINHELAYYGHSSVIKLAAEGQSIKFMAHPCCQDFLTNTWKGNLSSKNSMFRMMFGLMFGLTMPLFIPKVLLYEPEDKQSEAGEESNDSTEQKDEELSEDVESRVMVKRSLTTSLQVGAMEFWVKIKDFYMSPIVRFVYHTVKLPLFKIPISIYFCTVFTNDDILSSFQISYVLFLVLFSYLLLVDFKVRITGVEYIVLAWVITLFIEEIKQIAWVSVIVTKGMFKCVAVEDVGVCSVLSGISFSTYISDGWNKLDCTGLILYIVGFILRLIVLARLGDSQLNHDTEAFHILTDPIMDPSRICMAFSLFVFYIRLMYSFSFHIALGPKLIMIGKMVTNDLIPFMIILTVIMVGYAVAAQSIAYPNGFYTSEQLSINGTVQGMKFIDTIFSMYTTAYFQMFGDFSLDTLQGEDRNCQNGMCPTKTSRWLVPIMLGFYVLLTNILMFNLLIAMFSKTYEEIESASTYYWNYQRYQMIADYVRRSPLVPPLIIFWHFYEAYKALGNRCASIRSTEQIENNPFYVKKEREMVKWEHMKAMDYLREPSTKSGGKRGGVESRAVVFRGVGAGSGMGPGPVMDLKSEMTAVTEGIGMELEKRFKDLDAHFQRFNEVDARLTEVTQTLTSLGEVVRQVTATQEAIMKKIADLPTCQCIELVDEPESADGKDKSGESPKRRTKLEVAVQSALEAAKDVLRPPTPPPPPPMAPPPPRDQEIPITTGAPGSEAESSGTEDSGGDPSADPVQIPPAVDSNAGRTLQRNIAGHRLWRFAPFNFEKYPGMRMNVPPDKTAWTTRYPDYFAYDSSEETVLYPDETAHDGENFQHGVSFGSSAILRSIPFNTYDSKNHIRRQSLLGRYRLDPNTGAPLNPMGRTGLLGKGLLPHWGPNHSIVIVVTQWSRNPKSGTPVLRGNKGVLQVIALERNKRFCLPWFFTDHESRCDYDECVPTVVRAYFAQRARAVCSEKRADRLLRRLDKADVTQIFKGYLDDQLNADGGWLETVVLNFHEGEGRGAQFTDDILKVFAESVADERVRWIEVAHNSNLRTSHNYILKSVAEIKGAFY

[2] = system: HepG2 hepatic epithelial cells; test: in vitro
Procedure: (§1) Next, we conducted a more detailed investigation by performing dose–response assays with each compound on HepG2 hepatic epithelial cells, as the liver is one of the major organs affected in intestinal schistosomiasis.
(§2) More details are provided in the Supporting Information.
(§3) Adult worm ex-vivo high-content assay
(§4) Male and female worms were placed in 96-well microplates (one worm per well) and incubated […]
(§5) to 72 hours. Brightfield timelapse images (100 images, 0.3-second intervals) were captured from each well before, immediately after, and every 24 hours following compound addition using an ImageXpress Micro Confocal High Content System equipped with a 2x objective. Image analysis was performed through a custom pipeline in CellProfiler software (v. 4.2.1, Windows OS).57 During analysis, the area of each worm and its displacement between consecutive image captures (i.e., images taken at successive time points) were measured using the parameters “Area” and “False Negative Rate” from the MeasureObjectSizeShape and MeasureObjectOverlap modules, respectively. These measurements were then modeled by a multilevel generalized linear statistical model. The effects of the experimental treatments on parasite motility were estimated with the integrated nested Laplace approximation (INLA) method, available in the INLA package of R (https://www.r-inla.org). The half-maximal inhibitory concentration (EC50) of each compound was calculated based on the worms' estimated motility using the […] 4-parameter logistic equation in GraphPad Prism version 9.0.0 for Windows (GraphPad Software, Boston, MA, USA; www.graphpad.com). […]
(§6) either at a fixed concentration (10 µM) or across a range of concentrations (0.0001–300 µM), or with DMSO as a negative control. Two hours before the end of the experiment (t0), a resazurin solution (final concentration: 0.01 mg/mL) was added to each well and the first fluorescence […]
(§7) reader. At the end of the incubation (t1), a second reading was performed. The fluorescence attributed solely to resorufin was measured by subtracting the fluorescence readings at t0 from those at t1. The results were expressed as percentual cell viability considering negative control

in vitro = details: human, HepG2 cytotoxicity (CC50)
Procedure: as §1, §2, §3, §4, §5, §6, §7

[3] = system: juvenile schistosomes (21 days p.i.); test: XTT juvenile viability assay; format: cell-based, Schistosoma mansoni; details: 100 μM, 48 h
Fh.TRPMPZQ = test: Ca2+ reporter (FLIPR) activation assay, Fh.TRPMPZQ in HEK293 cells; format: cell-based, Fasciola hepatica; details: at the tested concentrations, data not shown
Procedure: (§8) Finally, selectivity for Sm.TRPMPZQ was assessed by profiling responses on the F. hepatica (Fh.TRPMPZQ) and E. granulosus (Eg.TRPMPZQ) TRPMPZQ orthologs, as well as the schistosome TRPM paralog Sm.TRPMMCLZ, a distinct TRPM channel activated by meclonazepam. Meclonazepam is an anthelmintic benzodiazepine known for its toxicity to juvenile schistosome worms.
(§9) The Ca^2+ reporter assay was performed using a Fluorescence Imaging Plate Reader (FLIPR) system, as described in the Supporting Information. […]
(§10) The half-maximal inhibitory
(§11) Windows (GraphPad Software, Boston, MA, USA; www.graphpad.com). […]
(§12) with DMSO as a negative control. […]
(§13) reader. […] The fluorescence
(§14) Untransfected HEK293 cells were used as a control.
(§15) 10% fetal bovine serum (FBS). […]
(§16) atmosphere containing 5% CO₂. Following incubation, the growth medium was removed and […]
(§17) buffer containing 2.5 mM probenecid in HBSS (with Ca²⁺ and Mg²⁺), 20 mM HEPES, 0.3% BSA (Sigma, A7030), and 0.03% L-ascorbic acid (Sigma). Cells were incubated for 40 minutes at 37 °C and subsequently for 20 minutes at room temperature. A total of seven PZQ derivatives were tested, using racemic PZQ included as a positive control on each assay plate. Drug dilutions were prepared in assay buffer without dye and probenecid and dispensed into separate flat-bottom 384-well plates. Calcium flux measurements were performed at room temperature using a […]
(§18) instrument (Molecular Devices). Baseline fluorescence was recorded for 20 seconds, followed by the addition of 5 µL of each drug solution, after which fluorescence was measured continuously for 250 seconds. […]

Sm.TRPMMCLZ = test: Ca2+ reporter (FLIPR) activation assay, Sm.TRPMMCLZ in HEK293 cells; format: cell-based, Schistosoma mansoni; details: at the tested concentrations, data not shown
Procedure: as §8, §9, §10, §11, §12, §13, §14, §15, §16, §17, §18

Q: Which results are given for `CCCc1cn(-c2ccc3c(c2)C2CN(C(=O)C4CCCCC4)CC(=O)N2CC3)nn1` (centres unmarked) [Compound 5e]?
A: number of juvenile worms with viability score 0 (juvenile schistosomes; 10 μM, Table S1): 61; number of juvenile worms with viability score 1 (juvenile schistosomes; 10 μM, Table S1): 7; number of juvenile worms with viability score 2 (juvenile schistosomes; 10 μM, Table S1): 34; number of juvenile worms with viability score 3 (juvenile schistosomes; 10 μM, Table S1): 6; viability at 10 µM (juvenile schistosomes; Schistosoma mansoni, read-out: Relative frequency of viability score 3): 5.6%; EC50 ([1]; Schistosoma mansoni, 0 h, female adult worms, 0 h (immediately after addition), single experiment or geometric mean, read-out: Female worm motility inhibition (EC50)): 3.5 µM; EC50 ([1]; Schistosoma mansoni, 0 h, female, 0 h, individual experiments, read-out: Female worm motility inhibition (EC50), values of independent experiments): 2.98 µM; EC50 ([1]; Schistosoma mansoni, 0 h, male adult worms, 0 h (immediately after addition), single experiment or geometric mean, read-out: Male worm motility inhibition (EC50)): 2.6 µM; EC50 ([1]; Schistosoma mansoni, 0 h, male, 0 h, individual experiments, read-out: Male worm motility inhibition (EC50), values of independent experiments): 2.5 µM; EC50 ([1]; Schistosoma mansoni, 24 h, female adult worms, 24 h, single experiment or geometric mean, read-out: Female worm motility inhibition (EC50)): 3.6 µM; EC50 ([1]; Schistosoma mansoni, 24 h, female, 24 h, individual experiments, read-out: Female worm motility inhibition (EC50), values of independent experiments): 3.7 µM; EC50 ([1]; Schistosoma mansoni, 24 h, male adult worms, 24 h, single experiment or geometric mean, read-out: Male worm motility inhibition (EC50)): 2.5 µM; EC50 ([1]; Schistosoma mansoni, 24 h, male, 24 h, individual experiments, read-out: Male worm motility inhibition (EC50), values of independent experiments): 2.29 µM; EC50 ([1]; Schistosoma mansoni, 48 h, female adult worms, 48 h, single experiment or geometric mean, read-out: Female worm motility inhibition (EC50)): 3.9 µM; EC50 ([1]; Schistosoma mansoni, 48 h, female, 48 h, individual experiments, read-out: Female worm motility inhibition (EC50), values of independent experiments): 3.14 µM; EC50 ([1]; Schistosoma mansoni, 48 h, male adult worms, 48 h, single experiment or geometric mean, read-out: Male worm motility inhibition (EC50)): 1.9 µM; EC50 ([1]; Schistosoma mansoni, 48 h, male and female, 48 h, read-out: EC50 against schistosomes (adult motility), span over male and female): 1.9 to 3.9 µM; EC50 ([1]; Schistosoma mansoni, 48 h, male, 48 h, individual experiments, read-out: Male worm motility inhibition (EC50), values of independent experiments): 1.7 µM; EC50 ([1]; Schistosoma mansoni, 72 h, female adult worms, 72 h, single experiment or geometric mean, read-out: Female worm motility inhibition (EC50)): 3.1 µM; EC50 ([1]; Schistosoma mansoni, 72 h, female, 72 h, individual experiments, read-out: Female worm motility inhibition (EC50), values of independent experiments): 2.94 µM; EC50 ([1]; Schistosoma mansoni, 72 h, male adult worms, 72 h, single experiment or geometric mean, read-out: Male worm motility inhibition (EC50)): 1.7 µM; EC50 ([1]; Schistosoma mansoni, 72 h, male, 72 h, individual experiments, read-out: Male worm motility inhibition (EC50), values of independent experiments): 1.64 µM; EC50 ([1]; Schistosoma mansoni, female, 0-72 h, read-out: EC50 against female adult worms (motility), span over incubation times): 3.1 to 3.9 µM; EC50 ([1]; female, 0 h, individual experiments, read-out: Female worm motility inhibition (EC50), values of independent experiments): 2.78 µM; EC50 ([1]; female, 48 h, individual experiments, read-out: Female worm motility inhibition (EC50), values of independent experiments): 4.77 µM; EC50 ([1]; female, 72 h, individual experiments, read-out: Female worm motility inhibition (EC50), values of independent experiments): 3.3 µM; EC50 ([1]; male, 0 h, individual experiments, read-out: Male worm motility inhibition (EC50), values of independent experiments): 2.68 µM; EC50 ([1]; male, 24 h, individual experiments, read-out: Male worm motility inhibition (EC50), values of independent experiments): 2.32 µM and 2.84 µM; EC50 ([1]; male, 48 h, individual experiments, read-out: Male worm motility inhibition (EC50), values of independent experiments): 2.12 µM and 1.99 µM; EC50 ([1]; male, 72 h, individual experiments, read-out: Male worm motility inhibition (EC50), values of independent experiments): 1.99 µM; EC50 (Sm.TRPMPZQ (wild-type); 0.001 to 100 μM): 4.23 ± 0.15 µM; Emax (Sm.TRPMPZQ (wild-type); read-out: Bmax, wild-type Sm.TRPMPZQ activation): 90.2 ± 1.53%; Emax (Eg.TRPMPZQ): 132 ± 15%; Selectivity Index (CC50/EC50), Female ([2]; HepG2 CC50 / female worm motility EC50, 48 h): 75.4 and 75; Selectivity Index (CC50/EC50), Male ([2]; HepG2 CC50 / male worm motility EC50, 48 h): 154.7 and 155; Selectivity Index (SI), sex not specified ([2]; HepG2 vs adult worms, 48 h): > 100; CC50 at 48 h (in vitro): ~300 µM; CC50 at 48 h (in vitro; values of independent experiments): 286 µM; parasite metabolic activity compared to the DMSO control group (XTT) [3]: significantly decreased; activation of Fh.TRPMPZQ (Fh.TRPMPZQ): did not activate; activation of Sm.TRPMMCLZ (Sm.TRPMMCLZ): did not activate
